Measurements taken from ChEMBL document CHEMBL4387741, “Optimization of novel reversible Bruton's tyrosine kinase inhibitors identified using Tethering-fragment-based screens” (Bioorg Med Chem, 2019).

Legend:
[1] = target: Tyrosine-protein kinase Fer (Homo sapiens) (UniProt P16591); assay: Inhibition of wild-type human partial length FER (S542 to T822 residues) expressed in bacterial expression system at 1 uM by Kinomescan method relative to control
[2] = target: cAMP-dependent protein kinase catalytic subunit alpha (Homo sapiens) (UniProt P17612); assay: Inhibition of wild-type human partial length PKAC-alpha (G10 to F351 residues) expressed in bacterial expression system at 1 uM by Kinomescan method relative to control
[3] = tested on: Phosphatidylinositol 4,5-bisphosphate 3-kinase catalytic subunit alpha isoform (Homo sapiens), P42336 [H1047L]; assay: Inhibition of human partial length PIK3CA H1047L mutant (R108 to N1068 residues) expressed in mammalian expression system at 1 uM by Kinomescan method relative to control
[4] = target: Cyclin-dependent kinase 11B (Homo sapiens) (UniProt P21127); assay: Inhibition of wild-type human partial length CDC2L1 (P353 to G692 residues) expressed in bacterial expression system at 1 uM by Kinomescan method relative to control
[5] = target: Ribosomal protein S6 kinase alpha-5 (Homo sapiens) (UniProt O75582); assay: Inhibition of wild-type human partial length C-terminal RPS6KA5 kinase domain 2 (V390 to T718 residues) expressed in bacterial expression system at 1 uM by Kinomescan method relative to control
[6] = target: Cyclin-G-associated kinase (Homo sapiens) (UniProt O14976); assay: Inhibition of wild-type human partial length GAK (G13 to Y338 residues) expressed in bacterial expression system at 1 uM by Kinomescan method relative to control
[7] = target: Serine/threonine-protein kinase MAK (Homo sapiens) (UniProt P20794); assay: Inhibition of wild-type human partial length MAK (M1 to P314 residues) expressed in bacterial expression system at 1 uM by Kinomescan method relative to control
[8] = target: Serine/threonine-protein kinase pim-3 (Homo sapiens) (UniProt Q86V86); assay: Inhibition of wild-type human partial length PIM3 (G16 to A317 residues) expressed in bacterial expression system at 1 uM by Kinomescan method relative to control
[9] = tested on: Phosphatidylinositol 4,5-bisphosphate 3-kinase catalytic subunit alpha isoform (Homo sapiens), P42336 [E545K]; assay: Inhibition of human partial length PIK3CA E545K mutant (R108 to N1068 residues) expressed in mammalian expression system at 1 uM by Kinomescan method relative to control
[10] = target: Cyclin-dependent kinase 11A (Homo sapiens) (UniProt Q9UQ88); assay: Inhibition of wild-type human partial length CDC2L2 (D391 to K730 residues) expressed in bacterial expression system at 1 uM by Kinomescan method relative to control
[11] = target: Mitogen-activated protein kinase kinase kinase 3 (Homo sapiens) (UniProt Q99759); assay: Inhibition of wild-type human partial length MAP3K3 (E320 to Y626 residues) expressed in mammalian expression system at 1 uM by Kinomescan method relative to control
[12] = target: Macrophage-stimulating protein receptor (Homo sapiens) (UniProt Q04912); assay: Inhibition of wild-type human partial length MST1R (I1057 to L1363 residues) expressed in bacterial expression system at 1 uM by Kinomescan method relative to control
[13] = Oral bioavailability in Sprague-Dawley rat using amorphous solid form of compound; format: ADME, organism-based; settings: in vivo
[14] = target: ALK tyrosine kinase receptor (Homo sapiens) (UniProt Q9UM73); assay: Inhibition of wild-type human partial length ALK (I1088 to E1409 residues) expressed in mammalian expression system at 1 uM by Kinomescan method relative to control
[15] = target: BMP-2-inducible protein kinase (Homo sapiens) (UniProt Q9NSY1); assay: Inhibition of wild-type human partial length BIKE (S34 to N329 residues) expressed in bacterial expression system at 1 uM by Kinomescan method relative to control
[16] = target: Mitogen-activated protein kinase 12 (Homo sapiens) (UniProt P53778); assay: Inhibition of wild-type human full length p38-gamma (M1 to L367 residues) expressed in mammalian expression system at 1 uM by Kinomescan method relative to control
[17] = target: Non-receptor tyrosine-protein kinase TYK2 (Homo sapiens) (UniProt P29597); assay: Inhibition of wild-type human partial length TYK2 JH1 catalytic domain (V877 to C1187 residues) expressed in mammalian expression system at 10 uM by Kinomescan method relative to control
[18] = target: Microtubule-associated serine/threonine-protein kinase 1 (Homo sapiens) (UniProt Q9Y2H9); assay: Inhibition of wild-type human partial length MAST1 (S346 to V730 residues) expressed in mammalian expression system at 10 uM by Kinomescan method relative to control
[19] = target: Activin receptor type-2B (Homo sapiens) (UniProt Q13705); assay: Inhibition of wild-type human ACVR2B (H169 to D504 residues) expressed in bacterial expression system at 10 uM by Kinomescan method relative to control
[20] = target: Serine/threonine-protein kinase STK11 (Homo sapiens) (UniProt Q15831); assay: Inhibition of wild-type human full length LKB1 (M1 to Q433 residues) expressed in bacterial expression system at 10 uM by Kinomescan method relative to control
[21] = tested on: Epidermal growth factor receptor (Homo sapiens), P00533 [UNDEFINED MUTATION]; assay: Inhibition of human partial length EGFR L747-T751del/Sins mutant expressed in bacterial expression system at 10 uM by Kinomescan method relative to control
[22] = target: Serine/threonine-protein kinase mTOR (Homo sapiens) (UniProt P42345); assay: Inhibition of wild-type human partial length MTOR (L1382 to W2549 residues) expressed in mammalian expression system at 10 uM by Kinomescan method relative to control
[23] = tested on: Epidermal growth factor receptor (Homo sapiens), P00533 [G719S]; assay: Inhibition of human partial length EGFR G719S mutant (R669 to V1011 residues) expressed in bacterial expression system at 10 uM by Kinomescan method relative to control
[24] = target: Serine/threonine-protein kinase LATS1 (Homo sapiens) (UniProt O95835); assay: Inhibition of wild-type human partial length LATS1 (Q678 to V1130 residues) expressed in bacterial expression system at 10 uM by Kinomescan method relative to control
[25] = target: Dual specificity tyrosine-phosphorylation-regulated kinase 2 (Homo sapiens) (UniProt Q92630); assay: Inhibition of wild-type human full length DYRK2 (M1 to S528 residues) expressed in mammalian expression system at 10 uM by Kinomescan method relative to control
[26] = target: Discoidin domain-containing receptor 2 (Homo sapiens) (UniProt Q16832); assay: Inhibition of wild-type human partial length DDR2 (V555 to E855 residues) expressed in mammalian expression system at 10 uM by Kinomescan method relative to control
[27] = target: Serine/threonine-protein kinase WNK1 (Homo sapiens) (UniProt Q9H4A3); assay: Inhibition of wild-type human partial length WNK1 (Q194 to A490 residues) expressed in mammalian expression system at 10 uM by Kinomescan method relative to control

Sequence of Serine/threonine-protein kinase STK11 (Homo sapiens) (Q15831 whole entry, the tested form may be a part): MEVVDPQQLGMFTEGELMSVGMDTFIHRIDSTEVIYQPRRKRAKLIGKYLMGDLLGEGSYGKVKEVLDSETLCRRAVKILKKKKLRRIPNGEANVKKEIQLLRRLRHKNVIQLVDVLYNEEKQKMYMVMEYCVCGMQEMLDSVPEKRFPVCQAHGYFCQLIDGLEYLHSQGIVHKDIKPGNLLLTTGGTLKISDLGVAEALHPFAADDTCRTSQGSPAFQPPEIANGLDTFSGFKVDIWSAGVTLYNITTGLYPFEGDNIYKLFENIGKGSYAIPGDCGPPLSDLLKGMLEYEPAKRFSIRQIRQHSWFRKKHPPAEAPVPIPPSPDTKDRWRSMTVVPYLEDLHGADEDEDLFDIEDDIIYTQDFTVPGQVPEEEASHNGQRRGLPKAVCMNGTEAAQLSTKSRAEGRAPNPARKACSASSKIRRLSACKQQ
Sequence of Dual specificity tyrosine-phosphorylation-regulated kinase 2 (Homo sapiens) (Q92630 whole entry, the tested form may be a part): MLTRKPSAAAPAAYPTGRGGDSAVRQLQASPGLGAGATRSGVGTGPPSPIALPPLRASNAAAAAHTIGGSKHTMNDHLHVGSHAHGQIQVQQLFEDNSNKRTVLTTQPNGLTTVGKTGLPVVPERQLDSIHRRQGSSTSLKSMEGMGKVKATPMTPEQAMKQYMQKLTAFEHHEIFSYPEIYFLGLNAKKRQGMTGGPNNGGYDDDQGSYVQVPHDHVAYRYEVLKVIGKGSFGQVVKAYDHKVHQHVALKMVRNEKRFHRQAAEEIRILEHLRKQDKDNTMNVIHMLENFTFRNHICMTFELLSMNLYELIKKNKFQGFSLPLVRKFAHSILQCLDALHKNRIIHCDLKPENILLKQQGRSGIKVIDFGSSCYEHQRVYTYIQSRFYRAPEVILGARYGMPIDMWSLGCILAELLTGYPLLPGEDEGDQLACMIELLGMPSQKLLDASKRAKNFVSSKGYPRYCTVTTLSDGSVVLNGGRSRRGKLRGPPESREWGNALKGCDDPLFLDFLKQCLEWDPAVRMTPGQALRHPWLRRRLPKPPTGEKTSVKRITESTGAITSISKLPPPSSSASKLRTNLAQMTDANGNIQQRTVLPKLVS
Sequence of Cyclin-dependent kinase 11A (Homo sapiens) (Q9UQ88 whole entry, the tested form may be a part): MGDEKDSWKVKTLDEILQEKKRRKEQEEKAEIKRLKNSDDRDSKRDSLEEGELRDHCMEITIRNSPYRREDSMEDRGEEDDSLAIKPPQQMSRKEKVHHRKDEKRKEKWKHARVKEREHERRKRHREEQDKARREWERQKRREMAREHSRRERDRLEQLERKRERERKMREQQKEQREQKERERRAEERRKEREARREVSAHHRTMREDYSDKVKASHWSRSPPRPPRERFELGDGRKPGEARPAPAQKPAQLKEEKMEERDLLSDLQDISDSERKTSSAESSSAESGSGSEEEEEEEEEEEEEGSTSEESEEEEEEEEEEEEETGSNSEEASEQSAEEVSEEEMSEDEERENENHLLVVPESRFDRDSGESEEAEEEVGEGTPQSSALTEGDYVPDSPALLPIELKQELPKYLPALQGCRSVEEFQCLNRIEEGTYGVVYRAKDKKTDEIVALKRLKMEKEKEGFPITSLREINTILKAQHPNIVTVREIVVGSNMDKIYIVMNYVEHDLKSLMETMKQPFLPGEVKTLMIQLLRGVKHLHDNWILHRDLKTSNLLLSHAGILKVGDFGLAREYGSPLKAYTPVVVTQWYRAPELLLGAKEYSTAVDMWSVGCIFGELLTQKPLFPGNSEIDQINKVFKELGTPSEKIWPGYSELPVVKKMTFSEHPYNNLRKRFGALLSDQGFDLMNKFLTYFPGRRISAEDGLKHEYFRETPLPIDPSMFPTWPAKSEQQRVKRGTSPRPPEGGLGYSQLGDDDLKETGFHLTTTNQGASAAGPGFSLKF
Sequence of Non-receptor tyrosine-protein kinase TYK2 (Homo sapiens) (P29597 whole entry, the tested form may be a part): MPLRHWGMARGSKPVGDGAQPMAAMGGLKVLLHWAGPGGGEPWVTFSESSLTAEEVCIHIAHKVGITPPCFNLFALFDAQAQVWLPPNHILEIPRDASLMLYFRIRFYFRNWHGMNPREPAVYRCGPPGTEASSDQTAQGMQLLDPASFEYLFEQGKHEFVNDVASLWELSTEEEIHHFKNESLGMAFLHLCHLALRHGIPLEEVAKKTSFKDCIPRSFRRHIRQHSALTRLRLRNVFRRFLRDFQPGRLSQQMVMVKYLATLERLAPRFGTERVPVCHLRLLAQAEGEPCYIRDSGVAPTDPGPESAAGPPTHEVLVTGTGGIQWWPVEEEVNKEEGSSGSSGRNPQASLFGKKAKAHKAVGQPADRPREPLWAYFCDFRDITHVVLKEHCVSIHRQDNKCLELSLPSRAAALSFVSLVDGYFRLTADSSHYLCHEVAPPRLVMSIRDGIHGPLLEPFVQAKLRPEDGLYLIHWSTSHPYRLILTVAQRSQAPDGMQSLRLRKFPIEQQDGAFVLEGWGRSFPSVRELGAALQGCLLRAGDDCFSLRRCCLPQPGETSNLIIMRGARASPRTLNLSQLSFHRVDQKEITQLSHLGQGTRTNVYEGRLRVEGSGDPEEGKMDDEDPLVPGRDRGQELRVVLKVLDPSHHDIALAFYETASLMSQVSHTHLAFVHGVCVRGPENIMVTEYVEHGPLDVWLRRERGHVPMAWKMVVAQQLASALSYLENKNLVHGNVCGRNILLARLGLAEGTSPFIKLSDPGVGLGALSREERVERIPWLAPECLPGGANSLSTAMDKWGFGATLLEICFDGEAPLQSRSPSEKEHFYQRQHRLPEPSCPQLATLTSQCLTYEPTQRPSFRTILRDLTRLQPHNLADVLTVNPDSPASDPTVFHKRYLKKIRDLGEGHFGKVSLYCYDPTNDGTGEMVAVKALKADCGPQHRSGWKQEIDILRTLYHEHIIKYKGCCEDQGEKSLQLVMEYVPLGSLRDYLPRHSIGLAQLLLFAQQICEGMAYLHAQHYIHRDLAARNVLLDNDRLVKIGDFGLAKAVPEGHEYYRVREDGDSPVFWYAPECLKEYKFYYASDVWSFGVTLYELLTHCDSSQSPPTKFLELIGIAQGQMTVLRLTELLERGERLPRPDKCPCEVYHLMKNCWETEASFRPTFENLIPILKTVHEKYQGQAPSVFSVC
Sequence of Activin receptor type-2B (Homo sapiens) (Q13705 whole entry, the tested form may be a part): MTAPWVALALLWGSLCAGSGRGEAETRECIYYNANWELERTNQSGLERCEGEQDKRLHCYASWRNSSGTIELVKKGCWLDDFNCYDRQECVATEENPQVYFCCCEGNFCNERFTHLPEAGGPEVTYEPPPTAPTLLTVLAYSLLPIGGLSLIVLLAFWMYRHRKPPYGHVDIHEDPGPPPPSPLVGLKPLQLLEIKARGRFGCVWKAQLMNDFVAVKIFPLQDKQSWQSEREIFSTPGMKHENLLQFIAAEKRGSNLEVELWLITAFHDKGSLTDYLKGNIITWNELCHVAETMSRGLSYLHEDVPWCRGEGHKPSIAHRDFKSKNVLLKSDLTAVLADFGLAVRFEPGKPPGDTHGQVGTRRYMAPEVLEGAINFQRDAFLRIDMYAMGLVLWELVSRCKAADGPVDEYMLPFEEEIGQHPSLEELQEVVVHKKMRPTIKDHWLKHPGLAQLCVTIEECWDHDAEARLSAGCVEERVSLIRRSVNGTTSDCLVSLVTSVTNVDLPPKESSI
Sequence of BMP-2-inducible protein kinase (Homo sapiens) (Q9NSY1 whole entry, looked up, the tested form may be a part): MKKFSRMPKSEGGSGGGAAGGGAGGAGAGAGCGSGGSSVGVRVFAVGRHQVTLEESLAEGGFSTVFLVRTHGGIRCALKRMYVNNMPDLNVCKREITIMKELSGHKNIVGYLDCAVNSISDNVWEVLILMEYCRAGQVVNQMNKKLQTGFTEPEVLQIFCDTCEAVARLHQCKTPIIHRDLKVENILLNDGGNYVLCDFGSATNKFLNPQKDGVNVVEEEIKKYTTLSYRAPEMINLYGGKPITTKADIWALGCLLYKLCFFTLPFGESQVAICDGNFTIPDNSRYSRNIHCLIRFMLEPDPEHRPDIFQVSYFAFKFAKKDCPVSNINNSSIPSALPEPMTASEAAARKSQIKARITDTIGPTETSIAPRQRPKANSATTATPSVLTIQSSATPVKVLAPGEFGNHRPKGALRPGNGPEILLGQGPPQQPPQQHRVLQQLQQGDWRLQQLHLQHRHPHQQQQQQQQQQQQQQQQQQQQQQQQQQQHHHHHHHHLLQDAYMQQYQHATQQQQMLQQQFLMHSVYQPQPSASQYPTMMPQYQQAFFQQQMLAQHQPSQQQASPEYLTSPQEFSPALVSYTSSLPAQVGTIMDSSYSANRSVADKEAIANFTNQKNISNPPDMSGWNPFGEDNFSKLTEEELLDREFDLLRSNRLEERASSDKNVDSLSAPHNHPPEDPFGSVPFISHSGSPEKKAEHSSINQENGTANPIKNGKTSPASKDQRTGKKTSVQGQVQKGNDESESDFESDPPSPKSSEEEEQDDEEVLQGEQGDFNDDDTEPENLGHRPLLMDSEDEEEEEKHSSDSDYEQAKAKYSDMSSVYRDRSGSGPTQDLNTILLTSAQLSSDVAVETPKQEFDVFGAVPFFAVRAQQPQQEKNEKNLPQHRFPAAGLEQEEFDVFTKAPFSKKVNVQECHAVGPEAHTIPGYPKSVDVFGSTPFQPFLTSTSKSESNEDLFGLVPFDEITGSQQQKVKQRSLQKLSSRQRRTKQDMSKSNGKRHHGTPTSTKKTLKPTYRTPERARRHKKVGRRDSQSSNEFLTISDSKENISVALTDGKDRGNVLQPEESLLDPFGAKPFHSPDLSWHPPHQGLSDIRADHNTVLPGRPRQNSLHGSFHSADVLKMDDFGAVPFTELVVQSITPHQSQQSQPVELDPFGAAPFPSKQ

## O=C(Nc1cccc([C@@H]2CN(c3ncnc4[nH]ccc34)CCN2CCO)c1)Nc1c(F)cccc1N1CCCC1
[1]
  inhibition: 82%
[2]
  inhibition: 76%
[3]
  inhibition: 100%
[4]
  inhibition: 100%
[5]
  inhibition: 96%
[6]
  inhibition: 96%
[7]
  inhibition: 94%
[8]
  inhibition: 89%
[9]
  inhibition: 56%
[10]
  inhibition: 96%
[11]
  inhibition: 42%
[12]
  inhibition: 100%
[13]
  bioavailability: 12%
[14]
  inhibition: 98%
[15]
  inhibition: 39%
[16]
  inhibition: 81%

## O=C(Nc1cccc([C@H]2CCCN(c3ncnc4[nH]ccc34)C2)c1)Nc1ccccc1N1CCCC1
[17]
  inhibition: 0.6%
[18]
  inhibition: 69%
[19]
  inhibition: 100%
[20]
  inhibition: 25%
[21]
  inhibition: 88%
[22]
  inhibition: 98%
[23]
  inhibition: 81%
[24]
  inhibition: 14%
[25]
  inhibition: 78%
[26]
  inhibition: 0.55%
[27]
  inhibition: 72%
